Assay results as given in ChEMBL document CHEMBL2169830, “Identification, synthesis, and biological evaluation of the metabolites of 3-amino-6-(3'-aminopropyl)-5H-indeno[1,2-c]isoquinoline-5,11-(6H)dione (AM6-36), a promising rexinoid lead compound for the development of cancer chemotherapeutic and chemopreventive agents” (J Med Chem, 2012).
pEC50, pIC50: −log10 of the molar value.

Key:
[1] = Drug metabolism in Sprague-Dawley rat assessed as N-[6-(3-Hydroxypropyl)-5,11-dioxo-6,11-dihydro-5Hindeno[1,2-c]isoquinolin-3-yl]acetamide level in mammary gland at 40 mg/kg, po administered 3 days; assay type: ADME, organism-based; set-up: dose 40 mg/kg, route oral; conditions: in vivo, 72 h
Serum [2] = test: Drug metabolism in Sprague-Dawley rat assessed as N-[6-(3-Hydroxypropyl)-5,11-dioxo-6,11-dihydro-5Hindeno[1,2-c]isoquinolin-3-yl]acetamide level in serum at 40 mg/kg, po administered 3 days; assay type: ADME, organism-based; set-up: dose 40 mg/kg, route oral; conditions: in vivo, 72 h
Liver [3] = test: Drug metabolism in Sprague-Dawley rat assessed as N-[6-(3-Hydroxypropyl)-5,11-dioxo-6,11-dihydro-5Hindeno[1,2-c]isoquinolin-3-yl]acetamide level in liver at 40 mg/kg, po administered 3 days; assay type: ADME, organism-based; set-up: dose 40 mg/kg, route oral; conditions: in vivo, 72 h
[4] = Drug metabolism in Sprague-Dawley rat assessed as 3-Amino-11-hydroxy-6-(3-hydroxypropyl)-6,11-dihydro-5Hindeno[1,2-c]isoquinolin-5-one level in mammary gland at 40 mg/kg, po administered 3 days; assay type: ADME, organism-based; set-up: dose 40 mg/kg, route oral; conditions: in vivo, 72 h
Serum [5] = test: Drug metabolism in Sprague-Dawley rat assessed as 3-Amino-11-hydroxy-6-(3-hydroxypropyl)-6,11-dihydro-5Hindeno[1,2-c]isoquinolin-5-one level in serum at 40 mg/kg, po administered 3 days; assay type: ADME, organism-based; set-up: dose 40 mg/kg, route oral; conditions: in vivo, 72 h
Liver [6] = test: Drug metabolism in Sprague-Dawley rat assessed as 3-Amino-11-hydroxy-6-(3-hydroxypropyl)-6,11-dihydro-5Hindeno[1,2-c]isoquinolin-5-one level in liver at 40 mg/kg, po administered 3 days; assay type: ADME, organism-based; set-up: dose 40 mg/kg, route oral; conditions: in vivo, 72 h
[7] = Drug metabolism in Sprague-Dawley rat assessed as 6-(3-Hydroxypropyl)-3-amino-5H-indeno[1,2- c]-isoquinoline-5,11(6H)dione level in mammary gland at 40 mg/kg, po administered 3 days; assay type: ADME, organism-based; set-up: dose 40 mg/kg, route oral; conditions: in vivo, 72 h
Serum [8] = test: Drug metabolism in Sprague-Dawley rat assessed as 6-(3-Hydroxypropyl)-3-amino-5H-indeno[1,2- c]-isoquinoline-5,11(6H)dione level in serum at 40 mg/kg, po administered 3 days; assay type: ADME, organism-based; set-up: dose 40 mg/kg, route oral; conditions: in vivo, 72 h
Liver [9] = test: Drug metabolism in Sprague-Dawley rat assessed as 6-(3-Hydroxypropyl)-3-amino-5H-indeno[1,2- c]-isoquinoline-5,11(6H)dione level in liver at 40 mg/kg, po administered 3 days; assay type: ADME, organism-based; set-up: dose 40 mg/kg, route oral; conditions: in vivo, 72 h
[10] = Drug metabolism in Sprague-Dawley rat assessed as 3-Amino-6-(3-aminopropyl)-11-hydroxy-6,11-dihydro-5Hindeno[1,2-c]isoquinolin-5-one level in mammary gland at 40 mg/kg, po administered 3 days; assay type: ADME, organism-based; set-up: dose 40 mg/kg, route oral; conditions: in vivo, 72 h
Serum [11] = test: Drug metabolism in Sprague-Dawley rat assessed as 3-Amino-6-(3-aminopropyl)-11-hydroxy-6,11-dihydro-5Hindeno[1,2-c]isoquinolin-5-one level in serum at 40 mg/kg, po administered 3 days; assay type: ADME, organism-based; set-up: dose 40 mg/kg, route oral; conditions: in vivo, 72 h
Liver [12] = test: Drug metabolism in Sprague-Dawley rat assessed as 3-Amino-6-(3-aminopropyl)-11-hydroxy-6,11-dihydro-5Hindeno[1,2-c]isoquinolin-5-one level in liver at 40 mg/kg, po administered 3 days; assay type: ADME, organism-based; set-up: dose 40 mg/kg, route oral; conditions: in vivo, 72 h
[13] = Cytotoxicity against human HEK293 cells assessed as cell survival at 50 uM relative to control; assay type: cell-based; conditions: read-out: Survival
[14] = Inhibition of TNFalpha-induced human NFkappaB activity in HEK293 cells incubated for 6 hrs followed by compound wash out measured after 5 mins by luciferase assay; assay type: cell-based
HEK293 = test: Inhibition of TNFalpha-induced human NFkappaB activity in HEK293 cells at 50 uM incubated for 6 hrs followed by compound wash out measured after 5 mins by luciferase assay; assay type: cell-based
[15] = molecular target: T1, Retinoic acid receptor RXR-alpha (Homo sapiens, UniProt P19793); test: Agonist activity at human RXRalpha expressed in african green monkey COS1 cells assessed as induction of RXRE transcriptional activity after 12 hrs by luciferase reporter gene assay; assay type: functional, cell-based, COS-1
T1 sequence (P19793 whole entry): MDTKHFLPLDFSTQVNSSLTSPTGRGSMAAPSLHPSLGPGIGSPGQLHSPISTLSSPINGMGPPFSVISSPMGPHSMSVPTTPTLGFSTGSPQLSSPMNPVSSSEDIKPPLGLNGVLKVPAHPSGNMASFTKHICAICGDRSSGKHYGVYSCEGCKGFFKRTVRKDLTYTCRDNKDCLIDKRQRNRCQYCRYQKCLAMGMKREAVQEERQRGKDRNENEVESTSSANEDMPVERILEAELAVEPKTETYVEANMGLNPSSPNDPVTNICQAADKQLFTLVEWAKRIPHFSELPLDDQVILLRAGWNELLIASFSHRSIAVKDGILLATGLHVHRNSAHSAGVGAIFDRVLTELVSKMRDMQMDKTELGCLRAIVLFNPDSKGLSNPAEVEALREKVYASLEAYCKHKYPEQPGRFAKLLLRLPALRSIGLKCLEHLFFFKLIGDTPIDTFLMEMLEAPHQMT

[16] = Cytotoxicity against african green monkey COS1 cells assessed as cell survival at 50 uM relative to control; assay type: cell-based; conditions: chlorocebus aethiops, COS-1 cells; read-out: Survival
[17] = Drug metabolism in Sprague-Dawley rat assessed as N-[6-(3-Aminopropyl)-5,11-dioxo-6,11-dihydro-5H-indeno- [1,2-c]isoquinolin-3-yl]acetamide level in mammary gland at 40 mg/kg, po administered 3 days; assay type: ADME, organism-based; set-up: dose 40 mg/kg, route oral; conditions: in vivo, 72 h
Liver [18] = test: Drug metabolism in Sprague-Dawley rat assessed as N-[6-(3-Aminopropyl)-5,11-dioxo-6,11-dihydro-5H-indeno- [1,2-c]isoquinolin-3-yl]acetamide level in liver at 40 mg/kg, po administered 3 days; assay type: ADME, organism-based; set-up: dose 40 mg/kg, route oral; conditions: in vivo, 72 h
Serum [19] = test: Drug metabolism in Sprague-Dawley rat assessed as N-[6-(3-Aminopropyl)-5,11-dioxo-6,11-dihydro-5H-indeno- [1,2-c]isoquinolin-3-yl]acetamide level in serum at 40 mg/kg, po administered 3 days; assay type: ADME, organism-based; set-up: dose 40 mg/kg, route oral; conditions: in vivo, 72 h
[20] = Drug metabolism in Sprague-Dawley rat assessed as parent compound level in liver at 40 mg/kg, po administered 3 days; assay type: ADME, organism-based; set-up: dose 40 mg/kg, route oral; conditions: read-out: Drug metabolism
[21] = Drug metabolism in Sprague-Dawley rat assessed as parent compound level in mammary gland at 40 mg/kg, po administered 3 days; assay type: ADME, organism-based; set-up: dose 40 mg/kg, route oral; conditions: read-out: Drug metabolism
Liver microsomes [22] = test: Metabolic stability in human liver microsomes assessed as GSH conjugate formation at 10 uM; assay type: ADME, Microsome
Liver microsomes [23] = test: Half life in human liver microsomes at 1 uM; assay type: ADME, Microsome
Liver microsomes [24] = test: Drug metabolism in human liver microsomes assessed as formation of 6-(3-hydroxypropyl)-3-amino-5H-indeno[1,2-c]-isoquinoline-5,11(6H)-dione at 1 uM after 60 mins in presence of NADPH and monoamine oxidase inhibitors clorgiline, pargyline; assay type: ADME, Microsome; conditions: 1 h
Liver microsomes [25] = test: Drug metabolism in human liver microsomes assessed as formation of 6-(3-hydroxypropyl)-3-amino-5H-indeno[1,2-c]-isoquinoline-5,11(6H)-dione at 1 uM preincubated for 10 mins prior to NADPH addition measured 60 mins post NADPH addition; assay type: ADME, Microsome; conditions: 1 h
Hepatocyte [26] = test: Drug metabolism in human hepatocytes assessed as formation of 6-(3-aminopropyl)-3-((2R,3R,4S,5S,6R)-3,4,5-trihydroxy-6-(hydroxymethyl)tetrahydro-2H-pyran-2-ylamino)-5H-indeno[1,2-c]isoquinoline-5,11(6H)-dione at 50 uM after 4 hrs; assay type: ADME, cell-based
Hepatocyte [27] = test: Drug metabolism in human hepatocytes assessed as formation of N-[6-(3-Hydroxypropyl)-5,11-dioxo-6,11-dihydro-5H-5Hindeno[ 1,2-c]isoquinolin 3-yl]acetamide at 50 uM after 4 hrs; assay type: ADME, cell-based
Hepatocyte [28] = test: Drug metabolism in human hepatocytes assessed as formation of 3-Amino-11-hydroxy-6-(3-hydroxypropyl)-6,11-dihydro-5H-5Hindeno[1,2-c]isoquinolin-5-one at 50 uM after 4 hrs; assay type: ADME, cell-based
Hepatocyte [29] = test: Drug metabolism in human hepatocytes assessed as formation of 6-(3-Hydroxypropyl)-3-amino 5H-indeno[1,2c]-isoquinoline-5,11(6H)dione at 50 uM after 4 hrs; assay type: ADME, cell-based
Hepatocyte [30] = test: Drug metabolism in human hepatocytes assessed as formation of N-[6-(3-Aminopropyl)-11-hydroxy-5-oxo-6,11-dihydro-5H-5Hindeno[ 1,2-c]isoquinolin-3-yl]acetamide at 50 uM after 4 hrs; assay type: ADME, cell-based
Hepatocyte [31] = test: Drug metabolism in human hepatocytes assessed as formation of N-[6-(3-Aminopropyl)-5,11-dioxo-6,11-dihydro-5H-indeno-[1,2-c]isoquinolin-3-yl]acetamide at 50 uM after 4 hrs; assay type: ADME, cell-based
Hepatocyte [32] = test: Drug metabolism in human hepatocytes assessed as formation of 3-Amino 6-(3-aminopropyl)-11-hydroxy-6,11-dihydro-5H-indeno[1,2-c]isoquinolin-5-one at 50 uM after 4 hrs; assay type: ADME, cell-based
Liver microsomes [33] = test: Drug metabolism in human liver microsomes assessed as formation of 3-Amino 6-(3-aminopropyl)-11-hydroxy-6,11-dihydro-5H-indeno[1,2-c]isoquinolin-5-one at 1 uM preincubated for 10 mins prior to NADPH addition measured 60 mins post NADPH addition; assay type: ADME, Microsome; conditions: 1 h
[34] = Drug metabolism in Sprague-Dawley rat assessed as parent compound level in serum at 40 mg/kg, po administered 3 days; assay type: ADME, organism-based; set-up: dose 40 mg/kg, route oral; conditions: read-out: Drug metabolism
Plasma = conditions: human, 10 µM
Description: Plasma protein binding in human plasma at 10 uM

**Q.** For NCCCn1c2c(c3ccc(N)cc3c1=O)C(=O)c1ccccc1-2, which Drug metabolism [1] is on record?
**A.** Not Active

**Q.** What about the Drug metabolism (Serum [2]) of the same molecule?
**A.** Not Active

**Q.** What about the Drug metabolism (Liver [3]) of the same molecule?
**A.** Active

**Q.** What about the Drug metabolism [4] of the same molecule?
**A.** Not Active

**Q.** What about the Drug metabolism (Serum [5]) of the same molecule?
**A.** Not Active

**Q.** And the Drug metabolism (Liver [6])?
**A.** Active

**Q.** What about the Drug metabolism [7] of the same molecule?
**A.** Not Active

**Q.** And the Drug metabolism (Serum [8])?
**A.** Not Active

**Q.** What about the Drug metabolism (Liver [9]) of the same molecule?
**A.** Active

**Q.** What about the Drug metabolism [10] of the same molecule?
**A.** Not Active

**Q.** What about the Drug metabolism (Serum [11]) of the same molecule?
**A.** Not Active

**Q.** And the Drug metabolism (Liver [12])?
**A.** Active

**Q.** What about the viability at 50 µM [13] of the same molecule?
**A.** 109%

**Q.** What about the pIC50 [14] of the same molecule?
**A.** 4.58

**Q.** What about the inhibition (HEK293) of the same molecule?
**A.** 84.9%

**Q.** And the pEC50 [15]?
**A.** 5.47

**Q.** What about the viability at 50 µM [16] of the same molecule?
**A.** 58.6%

**Q.** And the Drug metabolism [17]?
**A.** Not Active

**Q.** And the Drug metabolism (Liver [18])?
**A.** Active

**Q.** What about the Drug metabolism (Serum [19]) of the same molecule?
**A.** Active

**Q.** And the concentration at 72 h [20]?
**A.** 4300 ng/g

**Q.** What about the concentration at 72 h [21] of the same molecule?
**A.** 300 ng/g

**Q.** What about the Stability (Liver microsomes [22]) of the same molecule?
**A.** Stable

**Q.** And the t1/2 (Liver microsomes [23])?
**A.** 2.17 h

**Q.** What about the Drug metabolism (Liver microsomes [24]) of the same molecule?
**A.** Active

**Q.** And the Drug metabolism (Liver microsomes [25])?
**A.** Active

**Q.** What about the Drug metabolism (Hepatocyte [26]) of the same molecule?
**A.** Active

**Q.** And the Drug metabolism (Hepatocyte [27])?
**A.** Active

**Q.** What about the Drug metabolism (Hepatocyte [28]) of the same molecule?
**A.** Active

**Q.** What about the Drug metabolism (Hepatocyte [29]) of the same molecule?
**A.** Active

**Q.** And the Drug metabolism (Hepatocyte [30])?
**A.** Active

**Q.** What about the Drug metabolism (Hepatocyte [31]) of the same molecule?
**A.** Active

**Q.** What about the Drug metabolism (Hepatocyte [32]) of the same molecule?
**A.** Active

**Q.** And the Drug metabolism (Liver microsomes [33])?
**A.** Active

**Q.** And the concentration at 72 h [34]?
**A.** 800 ng/mL

**Q.** And the PPB (Plasma)?
**A.** 75%
